The source of these data is patent US20140162942A1, “INHIBITION OF CYP3A DRUG METABOLISM” (priority 2010, published 2014).

This series addresses T1, CYP2C8 (Homo sapiens, UniProt P10632).
T1 construct: Pooled human liver microsomes (from sixteen individuals) were used as the source of enzymes; tissue XenoTech, LLC; host or cells: human liver microsomes, pool of sixteen donors
T1 sequence (P10632 1-490): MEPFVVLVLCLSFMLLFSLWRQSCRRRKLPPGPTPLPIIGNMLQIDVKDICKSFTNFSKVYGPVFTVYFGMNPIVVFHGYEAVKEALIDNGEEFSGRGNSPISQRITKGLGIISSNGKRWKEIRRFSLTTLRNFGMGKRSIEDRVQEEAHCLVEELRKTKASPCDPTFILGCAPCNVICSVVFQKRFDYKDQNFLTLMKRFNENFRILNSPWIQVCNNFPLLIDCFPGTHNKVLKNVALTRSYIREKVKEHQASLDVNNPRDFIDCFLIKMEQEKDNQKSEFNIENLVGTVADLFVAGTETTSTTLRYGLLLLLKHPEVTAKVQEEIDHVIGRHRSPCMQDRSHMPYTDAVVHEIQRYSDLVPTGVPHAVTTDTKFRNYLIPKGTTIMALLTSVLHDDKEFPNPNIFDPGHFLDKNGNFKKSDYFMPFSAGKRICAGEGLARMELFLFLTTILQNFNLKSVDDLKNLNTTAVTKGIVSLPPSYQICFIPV
Nature of the series: CYP2C8 inhibition, amodiaquine N-dealkylation in human liver microsomes. The following applies: for Potential for Time-Dep. Inhibition: comparison with and without 30-minute pre-incubation. The format is in vitro ADME. On the procedure:
The basis for many of the following incubation conditions is described in the following references: Madan, et al., 2002,^(1) Huang, 2004,^(3) Ogilvie, et al., 2006,^(6) Pearce, et al., 1996,^(7) Tucker, et al., 2001,^(4) and Walsky and Obach, 2004.^(5) In general, incubations were conducted at approximately 37° C. in 400-μL incubation mixtures (target pH 7.4) containing high purity water, potassium phosphate buffer (50 mM), MgCl2 (3 mM), EDTA (1 mM), an NADPH-generating system [always the mixture of the following: NADP (1 mM), glucose-6-phosphate (5 mM), glucose-6-phosphate dehydrogenase (1 Unit/mL)], and marker substrate at the final concentrations indicated. Pooled human liver microsomes (from sixteen individuals) were used as the source of enzymes (Section 1.3.1.2). The concentrations of marker substrates were based on the Km and Vmax data that were determined previously (data not shown).
Due to the possibility that boceprevir may bind to microsomal protein or lipids, an attempt was made to design these experiments such that, in as many cases as possible, the microsomal protein, incubation time, and phosphate buffer concentration were 0.1 mg/mL, 5 minutes and 50 mM, respectively, for assays performed with human liver microsomes (Table 1). […] Since it is not imperative that the concentration of marker substrates be exactly equal to Km, the marker substrate concentrations were rounded up or down, as applicable, to simplify the experimental design (data not shown). […] Thus, the final incubation concentration of phenacetin was 60 μM (Table 1).
The ability of boceprevir to inhibit the CYP enzymes listed in Section 1.2.1 was investigated with a pool of sixteen individual human liver microsomal samples at the concentrations indicated in Table 1. Aliquots of the stock and/or working solutions of boceprevir were manually added to buffer mixtures containing the components described in Section 1.3.21. Incubation mixtures were prepared in bulk to obviate the need for directly pipetting very small volumes (i.e., 1 μL or less). Incubations containing no boceprevir (0 μM) contained the vehicle used to dissolve boceprevir (i.e., 1% methanol).
The Tecan liquid handling system conducted all remaining incubation steps, with the exception of the centrifugation. Aliquots of the buffer mixtures were then automatically added to 96-well plates at the appropriate locations in duplicate. Aliquots of a substrate working solution were added to the 96-well plates, prior to initiating reactions, to give the final concentrations indicated in Table 1. Reactions were initiated with the addition of an aliquot of an NADPH-generating system. Reactions were automatically terminated at approximately 5 minutes, by the addition of the appropriate internal standard (Table 5) and stop reagent; acetonitrile. Precipitated protein was removed by centrifugation (920 g for 10 minutes at 10° C.). Standards and quality control samples were similarly prepared with the addition of authentic metabolite standards.
To examine its ability to act as a time-dependent inhibitor, boceprevir (at the same concentrations used to evaluate direct inhibition) was pre-incubated at 37±1° C., in duplicate, with human liver microsomes and an NADPH-generating system for approximately 30 minutes. This pre-incubation allowed for the generation of intermediates that could inhibit human CYP enzymes. The pre-incubations were initiated with the addition of an aliquot of an NADPH-generating system. […]

Broadly, the IC50 is the concentration at which inhibition is half-maximal. Lower therefore signals greater potency. As for `CC(C)(C)NC(=O)NC(C(=O)N1CC2C([C@H]1C(=O)NC(CC1CCC1)C(=O)C(N)=O)C2(C)C)C(C)(C)C` (stereo partly drawn) [Boceprevir, (1R,2S,5S)—N-[(2Ξ)-4-amino-1-cyclobutyl-3,4-dioxobutan-2-yl]-3-{(2S)-2-[(tert-butylcarbamoyl)amino]-3,3-dimethylbutanoyl}-6,6-dimethyl-3-azabicyclo[3.1.0]hexane-2-carboxamide], the “Potential for Time-Dep. Inhibition” value is given as “little or no”. Further, the “Potential for Time-Dep. Inhibition” value (listed as boceprevir) was “no discernable time-dependent inhibition”. Moreover, the IC50 (direct inhibition, zero-minute pre-incubation, pooled human liver microsomes) was greater than 100 µM. Also, the inhibition at 5 min, 100 µM (human, pooled human liver microsomes, pH 7.4, probe amodiaquine (N-dealkylation), direct inhibition, zero-minute pre-incubation, read-out: Max. Inhib. at 100 μM) was determined as 25%. Moreover, the IC50 (time-dependent inhibition, 30-minute pre-incubation) was greater than 100 µM.
